Experiments:
[1] = test system: glucocorticoid signaling genes in SU-DHL4 cells; assay: RT2 Glucocorticoid Signaling PCR array; format: cell-based; set-up: IL10 Ct Values / TNF Ct Values: unit not given here; conditions: SUDHL4 cell line, 4 days
WSU-DLCL2 cells = assay: Medium throughput combination proliferation assay (CellTiter-Glo, Chou-Talalay CI / potency shift)
DOHH2 cells = assay: as above; conditions: DOHH2 EZH2 wild-type cells

Structure (SMILES): CCN(c1cc(-c2ccc(CN3CCOCC3)cc2)cc(C(=O)NCc2c(C)cc(C)[nH]c2=O)c1C)C1CCOCC1 [Compound 44]
- ACTB Ct Values [1]: 14.247
- ADARB1 Ct Values [1]: 28.562
- AFF1 Ct Values [1]: 25.936
- AK2 Ct Values [1]: 20.311
- AMPD3 Ct Values [1]: 25.553
- ANGPTL4 Ct Values [1]: 29.825
- ANXA4 Ct Values [1]: 28.717
- ARID5B Ct Values [1]: 25.129
- ASPH Ct Values [1]: 23.348
- ATF4 Ct Values [1]: 18.778
- B2M Ct Values [1]: 18.971
- BCL6 Ct Values [1]: 21.075
- CEBPA Ct Values [1]: 31.206
- CEBPB Ct Values [1]: 23.911
- CREB1 Ct Values [1]: 22.973
- CREB3 Ct Values [1]: 24.566
- CREB3L4 Ct Values [1]: 25.089
- CYB561 Ct Values [1]: 36.737
- DDIT4 Ct Values [1]: 21.455
- DUSP1 Ct Values [1]: 26.325
- EDN1 Ct Values [1]: 33.297
- EHD3 Ct Values [1]: 25.766
- FKBP5 Ct Values [1]: 20.494
- FOSL2 Ct Values [1]: 31.757
- GAPDH Ct Values [1]: 15.835
- GDPD1 Ct Values [1]: 28.134
- GHRHR Ct Values [1]: 37.623
- GLUL Ct Values [1]: 35.795
- GOT1 Ct Values [1]: 22.607
- H6PD Ct Values [1]: 25.743
- HAS2 Ct Values [1]: 35.628
- HNRPLL Ct Values [1]: 22.977
- HPRT1 Ct Values [1]: 21.358
- IL6R Ct Values [1]: 33.589
- IL10 Ct Values [1]: 33.099
- KLF9 Ct Values [1]: 27.456
- KLF13 Ct Values [1]: 22.649
- MT2A Ct Values [1]: 24.175
- NFKBIA Ct Values [1]: 22.909
- NR3C1 Ct Values [1]: 22.803
- PDCD7 Ct Values [1]: 24.858
- PDP1 Ct Values [1]: 26.112
- PER1 Ct Values [1]: 24.926
- PER2 Ct Values [1]: 24.371
- PIK3R1 Ct Values [1]: 23.440
- PLEKHF1 Ct Values [1]: 27.868
- POU2F1 Ct Values [1]: 24.224
- POU2F2 Ct Values [1]: 21.920
- RASA3 Ct Values [1]: 23.207
- RGS2 Ct Values [1]: 25.145
- RHOB Ct Values [1]: 32.584
- RPLP0 Ct Values [1]: 15.469
- SGK1 Ct Values [1]: 25.808
- SLC10A6 Ct Values [1]: 34.857
- SLC19A2 Ct Values [1]: 27.465
- SLC22A5 Ct Values [1]: 28.544
- SNTA1 Ct Values [1]: 24.797
- SPHK1 Ct Values [1]: 30.619
- SPSB1 Ct Values [1]: 26.495
- STAT5A Ct Values [1]: 25.174
- STAT5B Ct Values [1]: 22.153
- TBL1XR1 Ct Values [1]: 20.805
- TNF Ct Values [1]: 29.337
- TNFAIP3 Ct Values [1]: 28.521
- TSC22D3 Ct Values [1]: 21.432
- USP2 Ct Values [1]: 21.342
- USP54 Ct Values [1]: 26.952
- VDR Ct Values [1]: 28.330
- VLDLR Ct Values [1]: 28.792
- ZFP36 Ct Values [1]: 24.706
- ZHX3 Ct Values [1]: 24.719
- ZNF281 Ct Values [1]: 23.881
- AK2 ΔΔCT ([1]; compared to DMSO): −0.570
- CREB3 ΔΔCT ([1]; compared to DMSO): −0.490
- FKBP5 ΔΔCT ([1]; compared to DMSO): 0.008
- GOT1 ΔΔCT ([1]; compared to DMSO): 0.065
- TSC22D3 ΔΔCT ([1]; compared to DMSO): −0.002
- ACTB ΔCT (B2M) ([1]; normalized to B2M): −4.472
- ADARB1 ΔCT (B2M) ([1]; normalized to B2M): 8.878
- AFF1 ΔCT (B2M) ([1]; normalized to B2M): 7.118
- AK2 ΔCT (B2M) ([1]; normalized to B2M): 1.846
- AMPD3 ΔCT (B2M) ([1]; normalized to B2M): 6.024
- ANGPTL4 ΔCT (B2M) ([1]; normalized to B2M): 10.570
- ANXA4 ΔCT (B2M) ([1]; normalized to B2M): 8.217
- AQP1 ΔCT (B2M) ([1]; normalized to B2M): 14.226
- ARID5B ΔCT (B2M) ([1]; normalized to B2M): 5.748
- ASPH ΔCT (B2M) ([1]; normalized to B2M): 3.985
- ATF4 ΔCT (B2M) ([1]; normalized to B2M): 0.232
- B2M ΔCT (B2M) ([1]; normalized to B2M): 0.000
- BCL6 ΔCT (B2M) ([1]; normalized to B2M): 1.878
- CEBPA ΔCT (B2M) ([1]; normalized to B2M): 10.026
- CEBPB ΔCT (B2M) ([1]; normalized to B2M): 5.188
- CREB1 ΔCT (B2M) ([1]; normalized to B2M): 4.237
- CREB3L4 ΔCT (B2M) ([1]; normalized to B2M): 5.662
- CREB3 ΔCT (B2M) ([1]; normalized to B2M): 5.665
- CYB561 ΔCT (B2M) ([1]; normalized to B2M): 14.250
- DDIT4 ΔCT (B2M) ([1]; normalized to B2M): 3.098
- DIRAS2 ΔCT (B2M) ([1]; normalized to B2M): 14.626
- DUSP1 ΔCT (B2M) ([1]; normalized to B2M): 7.998
- EDN1 ΔCT (B2M) ([1]; normalized to B2M): 13.616
- FKBP5 ΔCT (B2M) ([1]; normalized to B2M): 3.113
- FOSL2 ΔCT (B2M) ([1]; normalized to B2M): 14.606
- GAPDH ΔCT (B2M) ([1]; normalized to B2M): −2.966
- GDPD1 ΔCT (B2M) ([1]; normalized to B2M): 8.216
- GLUL ΔCT (B2M) ([1]; normalized to B2M): 15.658
- GOT1 ΔCT (B2M) ([1]; normalized to B2M): 4.103
- H6PD ΔCT (B2M) ([1]; normalized to B2M): 6.063
- HAS2 ΔCT (B2M) ([1]; normalized to B2M): 13.205
- HNRPLL ΔCT (B2M) ([1]; normalized to B2M): 3.821
- HPRT1 ΔCT (B2M) ([1]; normalized to B2M): 2.826
- IL1RN ΔCT (B2M) ([1]; normalized to B2M): 17.503
- IL6R ΔCT (B2M) ([1]; normalized to B2M): 13.239
- IL10 ΔCT (B2M) ([1]; normalized to B2M): 12.363
- KLF9 ΔCT (B2M) ([1]; normalized to B2M): 8.013
- KLF13 ΔCT (B2M) ([1]; normalized to B2M): 4.078
- MERTK ΔCT (B2M) ([1]; normalized to B2M): 15.103
- MT2A ΔCT (B2M) ([1]; normalized to B2M): 4.766
- NFKBIA ΔCT (B2M) ([1]; normalized to B2M): 4.260
- NR3C1 ΔCT (B2M) ([1]; normalized to B2M): 4.025
- PDCD7 ΔCT (B2M) ([1]; normalized to B2M): 5.357
- PDGFRB ΔCT (B2M) ([1]; normalized to B2M): 16.449
- PDP1 ΔCT (B2M) ([1]; normalized to B2M): 6.751
- PER1 ΔCT (B2M) ([1]; normalized to B2M): 6.217
- PER2 ΔCT (B2M) ([1]; normalized to B2M): 5.647
- PIK3R1 ΔCT (B2M) ([1]; normalized to B2M): 4.859
- PLEKHF1 ΔCT (B2M) ([1]; normalized to B2M): 8.928
- POU2F1 ΔCT (B2M) ([1]; normalized to B2M): 5.110
- POU2F2 ΔCT (B2M) ([1]; normalized to B2M): 3.085
- RASA3 ΔCT (B2M) ([1]; normalized to B2M): 4.228
- RGS2 ΔCT (B2M) ([1]; normalized to B2M): 5.914
- RHOB ΔCT (B2M) ([1]; normalized to B2M): 11.328
- RHOJ ΔCT (B2M) ([1]; normalized to B2M): 19.737
- RPLP0 ΔCT (B2M) ([1]; normalized to B2M): −3.490
- SESN1 ΔCT (B2M) ([1]; normalized to B2M): 6.439
- SGK1 ΔCT (B2M) ([1]; normalized to B2M): 7.757
- SLC10A6 ΔCT (B2M) ([1]; normalized to B2M): 15.580
- SLC19A2 ΔCT (B2M) ([1]; normalized to B2M): 7.877
- SLC22A5 ΔCT (B2M) ([1]; normalized to B2M): 8.969
- SNTA1 ΔCT (B2M) ([1]; normalized to B2M): 5.666
- SPHK1 ΔCT (B2M) ([1]; normalized to B2M): 10.251
- SPSB1 ΔCT (B2M) ([1]; normalized to B2M): 6.832
- STAT5A ΔCT (B2M) ([1]; normalized to B2M): 6.005
- STAT5B ΔCT (B2M) ([1]; normalized to B2M): 3.152
- TBL1XR1 ΔCT (B2M) ([1]; normalized to B2M): 2.099
- TNF ΔCT (B2M) ([1]; normalized to B2M): 10.753
- TNFAIP3 ΔCT (B2M) ([1]; normalized to B2M): 9.051
- TSC22D3 ΔCT (B2M) ([1]; normalized to B2M): 4.628
- USP2 ΔCT (B2M) ([1]; normalized to B2M): 3.364
- USP54 ΔCT (B2M) ([1]; normalized to B2M): 15.234
- VDR ΔCT (B2M) ([1]; normalized to B2M): 8.200
- VLDLR ΔCT (B2M) ([1]; normalized to B2M): 9.068
- ZFP36 ΔCT (B2M) ([1]; normalized to B2M): 6.014
- ZHX3 ΔCT (B2M) ([1]; normalized to B2M): 5.569
- ZNF281 ΔCT (B2M) ([1]; normalized to B2M): 5.057
- maximum reduction in Compound 44 IC50 with Prednisolone (WSU-DLCL2 cells; WSU-DLCL2 (FIG. 3A)): 24 fold
- potency enhancement of Compound 44 at biologically relevant concentration of Dexamethasone (WSU-DLCL2 cells; WSU-DLCL2, 100 nM Dexamethasone): 15 fold
- potency enhancement of Compound 44 at biologically relevant concentration of Prednisolone (WSU-DLCL2 cells; WSU-DLCL2, 1 μM Prednisolone): 7 fold
- anti-proliferative effect as a single agent (DOHH2 cells): no anti-proliferative effect
